The values below come from publication PMC9078235 (RSC Advances, 2018).

The term EC50 denotes the concentration that produces a half-maximal response. Higher therefore signals a need for much substance.

The assay addresses Thrombin (≥1000 NIH U mg^−1 protein) prepared from human plasma (Homo sapiens, UniProt P00734). Description: chromogenic thrombin activation assay, […] nm. It counts as biochemical.
In the case of `CC(=O)Oc1ccc(/C=C/C(=O)Nc2nc3ccccc3s2)cc1` [Q2, (E)-4-(3-(Benzo[d]thiazol-2-ylamino)-3-oxoprop-1-en-1-yl)phenyl acetate], a half-maximal response (EC50) required 136 µM.

Compound `COc1cc(/C=C/C(=O)Nc2nc3ccccc3s2)cc(OC)c1OC` [Q8, (E)-N-(Benzo[d]thiazol-2-yl)-3-(3,4,5-trimethoxyphenyl)acrylamide] gave an EC50 of 232 µM.

In turn, `O=S(=O)(O)c1cc(O)ccc1O` [etamsylate, reference compound] came in with a half-maximal effective concentration (EC50) of 127 µM.
